{
  "source": "paper PMC10823475",
  "about": "“Design, Synthesis, and Evaluation of Inhibitors of Hedgehog Acyltransferase” (Journal of Medicinal Chemistry, 2024)",
  "key": {"[1]": {"assay": "MTS assay, cytotoxicity (72 h)", "format": "cell-based", "conditions": "human, HEK293a SHH+ cells, 72 h; for CC50 at 72 h: read-out: MTS Assay (HEK293a SHH+) CC50 (CI95)", "how_it_was_run": "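Cells plated at 5000/well, cultured 24 h, then exposed to analogues (0.14–100 μM final) in DMEM/10% FBS for 72 h. MTS/PMS added for 3 h at 37 °C and absorbance read at 490 nm; data normalised to DMSO vehicle and puromycin (2 μg/mL) wells, curves fitted with a variable-slope sigmoidal model.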"}, "[2]": {"tested_on": "palmitoylation of SHH in HEK293a SHH+ cells", "assay": "Cell-based YnPal metabolic tagging assay", "conditions": "for IC50: HEK293-A, HEK293a SHH+ cells", "method": "We first quantified the direct impact of previously reported HHAT inhibitors on palmitoylation of SHH using a cell-based metabolic tagging assay.[27],[36] In this assay, HEK293a SHH^+ cells were incubated with varying concentrations of inhibitors in the presence of alkyne palmitic acid derivative YnPal (Figure 5A).[35] Following cell lysis and bioorthogonal derivatization of palmitoylated proteins with capture reagent azide-TAMRA-biotin (AzTB)^67 using a copper catalyzed azide–alkyne cycloaddition (CuAAC) reaction, AzTB-labeled SHH is shifted to higher apparent molecular weight in sodium dodecyl sulfate polyacrylamide gel electrophoresis (SDS-PAGE), thereby enabling quantification of acylated SHH by α-SHH immunoblotting (compound 2, 17, and 22) or fluorescence imaging (compound 24, 28, and 30; SI, Figure S5–S6).[42]\nHEK293a SHH^+ cells were plated at 500,000 cells/well of a 6-well plate in a volume of 3 mL/well and cultured for 24 h as described. Cells were treated with DMSO vehicle, or RUSKI compounds in DMSO (0.016–10 μM final). After 1 h, 3 μL of YnPal (20 mM DMSO stock; 20 μM final) were added and the cells were cultured for another 6 h. Subsequently, cells were washed with PBS and lysed using PBS supplemented with 1% Triton, 0.1% SDS and Complete EDTA-free protease inhibitor cocktail (Roche Diagnostics). Cells were scraped off the plates and lysates centrifuged at 13 000g for 10 min at 4 °C to remove cell debris. Protein concentration was determined using the DC Protein Assay (Bio-Rad) following the manufacturer’s procedure.\nThe click reaction in cell lysate was performed as previously described.[42] Briefly, 1 μL AzTB (10 mM in DMSO, 100x), 2 μL CuSO4 (50 mM in H2O, 50x), 2 μL tris(2 carboxyethyl)phosphine hydrochloride (TCEP) (50 mM in H2O, 50×), and 1 μL tris[(1-benzyl-1H-1,2,3-triazol-4-yl)methyl]amine (TBTA, 10 mM in DMSO, 100×) were mixed. Then 6 μL of this click mixture were added to 100 μL of lysate, adjusted with lysis buffer to a protein concentration of 1 mg/mL. The click reaction was shaken at RT for 1 h. Subsequently, proteins were precipitated by adding methanol, chloroform, and water at a ratio of 2:0.5:1 to remove click reagents and excess of AzTB. The mixture was centrifuged (13 000g, 5 min at 4 °C) and the methanol and water containing top layer removed. Following the addition of an excess of methanol, the precipitated proteins were isolated by centrifugation (13 000g, 10 min at 4 °C) and washed twice with methanol. The protein pellets were air-dried and redissolved in PBS containing 0.2% SDS and 0.1 mM DTT using sonication, and adjusted to a final protein concentration of 1 mg/mL.\nFor enrichment of YnPal-labeled proteins, 100 μg of lysate were incubated with 30 μL of prewashed (3 × 500 μL of 0.2% SDS in PBS) Dynabeads MyOne Streptavidin C1 beads (Invitrogen) for 1 h at room temperature. Beads ware washed twice with 500 μL of 0.2% SDS in PBS and boiled for 10 min in 15 μL of PBS containing SDS-PAGE sample buffer. The entire pull-down sample and 10 μg of total lysate and supernatant fractions were loaded on a 15% SDS-PAGE gel. Fluorescence was scanned using a Typhoon imager (GE Healthcare; excitation laser: 532 nm, emission filter: LPG (575–700 nm); PMT: 750 V).\nProteins were transferred to nitrocellulose membrane using a wet transfer apparatus (100 V, 1 h). Membranes were blocked with 5% BSA in TBS-T (0.1% Tween-20, 50 mM Tris, 150 mM NaCl, pH 7.5) for 1 h at room temperature, followed by overnight incubation with SHH H-160 primary antibody (Santa Cruz Biotechnology; sc-9024; 1:200 in TBS-T + 0.5% BSA) or α-tubulin primary antibody (Santa Cruz Biotechnology; sc-8035; 1:200 in TBS-T + 0.5% BSA) at 4 °C. Membranes were washed with TBS-T and further incubated at RT for 1 h with the appropriate secondary antibody (HRP conjugated goat-antimouse IgG (H+L) or goat-antirabbit IgG (H+L); Advansta; 1:10,000 in TBS-T + 0.5% BSA). […]"}, "[3]": {"conditions": "read-out: YnPal tagging IC50 (CI95)"}},
  "note": "Where two headings read alike, the source gives them in different places.",
  "data": [
    {"smiles": "C=CCNCC(=O)N1CCc2sccc2C1COc1ccc(Cl)cc1", "note": "(stereo not shown) [Compound 2]", "values": [
      {"measurement": "CC50 at 72 h", "setting": "[1]", "value": 35.9, "unit": "µM"},
      {"measurement": "viability at 72 h, 12.5 µM", "setting": "[1]", "value": "56 ± 3", "unit": "%"},
      {"measurement": "viability at 72 h, 25 µM", "setting": "[1]", "value": "50 ± 2", "unit": "%"},
      {"measurement": "IC50", "setting": "[2]; [3]", "value": 2.35, "unit": "µM"}
    ]},
    {"smiles": "CC(=O)N1CCc2sccc2C1c1ccccc1", "note": "(stereo not shown) [Compound 5]", "values": [
      {"measurement": "CC50 at 72 h", "setting": "[1]", "value": 13.9, "unit": "µM"},
      {"measurement": "viability at 72 h, 12.5 µM", "setting": "[1]", "value": "73 ± 2", "unit": "%"},
      {"measurement": "viability at 72 h, 25 µM", "setting": "[1]", "value": "76 ± 4", "unit": "%"}
    ]},
    {"smiles": "Cc1cccc(C2c3ccsc3CCN2C(=O)CNCC(C)C)n1", "note": "(stereo not shown) [Compound 24]", "values": [
      {"measurement": "CC50 at 72 h", "setting": "[1]", "value": "> 50", "unit": "µM"},
      {"measurement": "viability at 72 h, 12.5 µM", "setting": "[1]", "value": "88 ± 3", "unit": "%"},
      {"measurement": "viability at 72 h, 25 µM", "setting": "[1]", "value": "80 ± 3", "unit": "%"},
      {"measurement": "IC50", "setting": "[2]; [3]", "value": 0.49, "unit": "µM"}
    ]},
    {"smiles": "CCC(C)CNCC(=O)N1CCc2sccc2C1c1cccc(C)n1", "note": "(stereo not shown) [Compound 22]", "values": [
      {"measurement": "CC50 at 72 h", "setting": "[1]", "value": "> 50", "unit": "µM"},
      {"measurement": "viability at 72 h, 12.5 µM", "setting": "[1]", "value": "92 ± 1", "unit": "%"},
      {"measurement": "viability at 72 h, 25 µM", "setting": "[1]", "value": "89 ± 3", "unit": "%"},
      {"measurement": "IC50", "setting": "[2]; [3]", "value": 1.08, "unit": "µM"}
    ]},
    {"smiles": "CCC(C)CNCC(=O)N1CCc2sccc2C1c1cccc(C)c1", "note": "(stereo not shown) [Compound 17]", "values": [
      {"measurement": "CC50 at 72 h", "setting": "[1]", "value": 40.7, "unit": "µM"},
      {"measurement": "viability at 72 h, 12.5 µM", "setting": "[1]", "value": "42 ± 3", "unit": "%"},
      {"measurement": "viability at 72 h, 25 µM", "setting": "[1]", "value": "55 ± 1", "unit": "%"},
      {"measurement": "IC50", "setting": "[2]; [3]", "value": 0.57, "unit": "µM"}
    ]},
    {"smiles": "Cc1cccc([C@@H]2c3ccsc3CCN2C(=O)CNCC(C)C)n1", "note": "[Compound 28]", "values": [
      {"measurement": "CC50 at 72 h", "setting": "[1]", "value": "> 100", "unit": "µM"},
      {"measurement": "viability at 72 h, 12.5 µM", "setting": "[1]", "value": "108 ± 7", "unit": "%"},
      {"measurement": "viability at 72 h, 25 µM", "setting": "[1]", "value": "105 ± 4", "unit": "%"},
      {"measurement": "inhibition of SHH tagging by YnPal", "setting": "[2]", "value": "inactive"},
      {"measurement": "IC50", "setting": "[2]; [3]", "value": "> 10", "unit": "µM"}
    ]},
    {"smiles": "Cc1cccc([C@H]2c3ccsc3CCN2C(=O)CNCC(C)C)n1", "note": "[Compound 30]", "values": [
      {"measurement": "CC50 at 72 h", "setting": "[1]", "value": "> 50", "unit": "µM"},
      {"measurement": "viability at 72 h, 12.5 µM", "setting": "[1]", "value": "101 ± 6", "unit": "%"},
      {"measurement": "viability at 72 h, 25 µM", "setting": "[1]", "value": "98 ± 5", "unit": "%"},
      {"measurement": "IC50", "setting": "[2]; read-out: IC50, cellular YnPal labeling of SHH", "value": 0.076, "unit": "µM"}
    ]}
  ]
}
